Data on five compounds can be found in US20260217712A1, “SOLID STATE FORMS OF MNK INHIBITORS” (4E Therapeutics, Inc., priority 2023, published 2026).

Values after ≈ are worked out from the molar mass of the structure shown. “Also recorded” adds a separate entry of the source. Like-named read-outs stand apart in the source and are kept apart here.

Holding throughout (assay type): physicochemical
A short description of series [1]: pKa measurements. The conditions noted are these: listed as Lot A.
A short description of series [2]: Thermodynamic solubility in simulated media and buffers. The conditions noted are these: 25 °C, thermodynamic from solid. The procedure:
The thermodynamic solubility for Pattern 11 was determined in 3 simulated media and two buffers. […]

Series [3] in a line: Gravimetric vapor sorption (GVS) and XRPD post-GVS. The procedure:
Sorption isotherms were obtained using a SMS DVS Intrinsic moisture sorption analyzer, controlled by DVS Intrinsic Control software. The sample temperature was maintained at 25° C. by the instrument controls. The humidity was controlled by mixing streams of dry and wet nitrogen, with a total flow rate of 200 mL/min. The relative humidity was measured by a calibrated Rotronic probe (dynamic range of 1.0-100% RH), located near the sample. The weight change, (mass relaxation) of the sample as a function of % RH was constantly monitored by a microbalance (accuracy±0.005 mg).
Typically, 5-30 mg of sample was placed in a tared mesh stainless steel basket under ambient conditions. The sample was loaded and unloaded at 40% RH and 25° C. (typical room conditions). A moisture sorption isotherm was performed as outlined below (2 scans per complete cycle). The standard isotherm was performed at 25° C. at 10% RH intervals over a 0-90% RH range. Typically, a double cycle (4 scans) was carried out. Data analysis was carried out within Microsoft Excel using the DVS Analysis Suite.
Sorption isotherms were obtained using a Hiden IGASorp moisture sorption analyser, controlled by Isochema HISorp software. The sample temperature was maintained at 25° C. by a Grant LT ecocool 150 re-circulating water bath. The humidity was controlled by mixing streams of dry and wet nitrogen, with a total flow rate of 250 ml·min-1. The relative humidity was measured by a calibrated Vaisala RH probe (dynamic range of 0-95% RH), located near the sample. The weight change, (mass relaxation) of the sample as a function of % RH was constantly monitored by the microbalance (accuracy±0.001 mg).
Typically, 20-30 mg of sample was placed in a tared mesh stainless steel basket under ambient conditions. The sample was loaded and unloaded at 40% RH and 25° C. (typical room conditions). A moisture sorption isotherm was performed as outlined below (2 scans giving 1 complete cycle). The standard isotherm was performed at 25° C. at 10% RH intervals over a 0-90% RH range. Typically, a double cycle (4 scans) was carried out. Data analysis was carried out within the Isochema HISorp 2019 software and exported into Microsoft Excel to present accordingly.

Series [4] is described as follows: Static storage at 40° C./75% RH, XRPD and HPLC post storage. The conditions noted are these: 40° C./75% RH, 8 days. The procedure:
Purity analysis was performed on an Agilent HP1100/Infinity II 1260 series system equipped with a diode array detector and using OpenLAB software. The full method details are provided below:
Poorly Crystalline Structure (I) (from Lot A, Free Form Pattern 1, 30 mg) was dissolved in 50 volumes of THF:Water 9:1 at 60° C. in 13 vials, stirring at 500 RPM (small amount of debris present). The solutions were then treated with 1.1 molar equivalents (90/180 μL) of selected counter-ions (Table 7). The resulting solutions were then cooled down to 5° C. at 0.1° C./min and were held at this temperature for 2 days. The suspensions were filtered and dried under suction for 20 min. The gummed sample was left with the cap off to promote crystallization. All solids obtained were initially analyzed by XRPD and stored in glass HPLC vials for subsequent analysis.
Any solids obtained were analyzed by XRPD, ^1H NMR, HPLC, TGA, DSC, XRPD post storage at 40° C./75% RH after 7 days & IC if necessary. Additional microscopy techniques (PLM & HSM) were used to complement the above analysis where appropriate.

Series [5] in a line: Static storage at 25° C./97% RH, XRPD and HPLC post storage. The conditions noted are these: 8 days, listed as Lot A.
Series [6] is described as follows: Initial solubility testing in solvents. The conditions noted are these: up to 50 vol, up to 50° C. As for the experimental part:
Structure (I) (20 mg) from Lot A (free form Pattern 1) was charged into HPLC vials, treated with solvent, 10 volumes at a time, until the material fully dissolved or a maximum of 50 volumes had been added. Once 50 volumes was reached without dissolution, the temperature was increased to 50° C. To each suspension, 1.1 molar equiv. (60 μL) of HCl (1M in THF) was added, stirred for 5 min, and slowly cooled to 5° C. at 0.1° C./min and held at that temperature overnight. All solids were then isolated by filtration through PTFE frits and dried under suction for 20 min. The samples were analyzed by XRPD.

Series [7] can be described thus: Variable temperature XRPD (VT-XRPD). The conditions noted are these: 250° C. From the text:
(§1) XRPD diffractograms were collected on a PANalytical Empyrean diffractometer using Cu Kα radiation (45 kV, 40 mA, λ=1.544398 Å) in reflection geometry. The instrument was fitted with an Anton Paar CHC plus+ stage fitted with graphite/Kapton windows and equipped with air cooling coupled or a low vacuum pump system using an Edwards RV3 pump. A programmable divergence slit (in automatic mode), with a 10 mm fixed incident beam mask, Ni filter and 0.04 rad Soller slits were used on the incident beam. A PIXcel3D detector, placed on the diffracted beam, was fitted with a programmable anti-scatter slit (in automatic mode) and 0.04 rad Soller slits.
For variable temperature (VT-XRPD) experiments the samples were prepared and analyzed in an Anton Paar chromed sample holder. The sample chamber was under ambient atmosphere and a heating/cooling rate of 10° C./min was used with a 2 min isothermal hold before the measurement started. The measurement parameters are as per the standard screening data collection method (detailed above). Measurements were taken at the following temperatures: 25, 80, 170, 250, and 25° C.

Series [8] is described as follows: XRPD under vacuum. The following applies: vacuum released for 30 min, ambient conditions.
Excerpt: as §1
For XRPD under vacuum the samples were prepared and analyzed in an Anton Paar chromed sample holder. The sample temperature was kept constant throughout at 25° C. The measurement parameters are as per the standard screening data collection method (detailed above). An initial measurement was taken before the vacuum was initiated and then subsequently at 10 min intervals. Data collection was stopped after three consecutive scans showing no change.

The nature of series [9]: Drying / standing under ambient conditions, XRPD. The following applies: ambient conditions. The procedure:
Structure (I) (Sample 28-2, 30 mg, Poorly Crystalline Pattern 3) was wetted with solvent (300 μL, 10 vol) according to Table 30 and put into a shaker at 50° C. for 6 days. The suspensions were isolated using filter cartridges and positive pressure. A XRPD pattern was collected for each sample. […] This characterization is presented and discussed in Examples detailed herein. (see, e.g., FIG. 75)

A short description of series [10]: Gravimetric solubility measurements from competitive slurry samples. The following applies: organic solvent or mixture, thermodynamic from solid, room temperature. From the text: In order to determine that Pattern 3 was not simply being dissolved in the solvent systems when the solid was introduced, gravimetric solubility measurements were made using the samples at room temperature. […] There was insufficient solubility at room temperature to dissolve the Pattern 3 present in the competitive slurry experiments.

Series [11] can be described thus: Competitive slurries of Pattern 3 and Pattern 11, XRPD. The conditions noted are these: competitive slurry, solvent and temperature per sample; for XRPD after 7 days: 20 vol. The procedure:
A solid mixture of Structure (I) Pattern 3 (from Lot B, 300 mg) and Pattern 11 (Sample 35-1, 300 mg) was mixed for 3 hours using a turbula mixer.
The solid mixture (30 mg) was suspended in solvent (dried with molecular sieves, 600 μL, 20 vol) and either stirred in the fridge, shaken at RT or 55° C. After 7 days, an aliquot of each suspension was analyzed by XRPD. Samples that were still a mixture of forms were placed back into fridge/shakers for a further 10 days and re-analyzed (results shown in Table 36).
Competitive slurry experiments at 55° C., along with one at 5° C., were repeated using a saturated solution as the solvent mixture to minimize dissolution that may have occurred at temperatures other than room temperature.
A saturated solution of THF/Water (9:1) (5 mL) with Structure (I) (from Lot B) was equilibrated at 55° C. overnight in a shaker. The solution was filtered using 0.45 μm nylon filter before use.
A solid mixture of Pattern 3 and Pattern 11 (30 mg) was suspended in the saturated solution (600 μL, 20 vol) and either stirred in the fridge (5° C.) or shaken at 55° C. After 1 day, aliquots of the suspensions were analyzed by XRPD. Both samples were placed back into fridge/shaker. After a total of 11 days, the samples were removed from fridge/shaker. Sample 38-2 was filtered before XRPD, Sample 38-1 was pipetted onto the XRPD holder and allowed to dry before analysis (solid passed through filter).

Turning to `Cc1cc(Nc2cc(N)ncn2)c(=O)n2c1C(=O)NC21CCC2(CC2)CC1` [Pattern 1], in [1], the “acidic pKa (acidic center)” value is recorded as “Acidic: 11.49” and the “basic pKa” value is reported as “Basic: 4.73”. Also, in series [2] (simulated gastric fluid, SGF (pH 1.4), read-out: Thermodynamic solubility in simulated media, SGF), the thermodynamic solubility was 130 µg/mL (≈ 0.355 mM). Moreover, in series [2] (FaSSIF (pH 6.7), read-out: Thermodynamic solubility in simulated media, FaSSIF), the solubility (thermodynamic) is 6 µg/mL (≈ 0.0164 mM). The solubility (thermodynamic) in series [2] (FeSSIF (pH 5.1), read-out: Thermodynamic solubility in simulated media, FeSSIF) is 20 µg/mL (≈ 0.0546 mM). In series [3] (0-90% RH), the “GVS mass change expressed as water” value is ~90% RH, exhibiting a slight hysteresis (ca. 6 mol eq water),. In addition, in series [3] (after double cycle GVS, listed as Lot A), the “Post GVS XRPD form” value is listed as “unchanged; also recorded: showed that the solid form remained as poorly crystalline”. Also, the “hygroscopicity (in words)” value in series [3] (listed as Lot A) is reported as “highly hygroscopic. XRPD of the sample after the analysis”. Further, the “HPLC after storage at 40° C./75% RH (8 days)” value in [4] is “HPLC-98.2%”. The “XRPD after storage at 40° C./75% RH (8 days)” value in series [4] (listed as Lot A) is recorded as “unchanged; also recorded: XRPD-poorly crystalline Pattern 1 (no change)”. Also, in series [5], the “HPLC purity after storage at 25° C./97% RH (8 days)” value is recorded as “HPLC-97.5%” and the “XRPD after storage at 25° C./97% RH (8 days)” value is on record as “XRPD-poorly crystalline Pattern 1 (no change)”. Further, the “solubility in solvents (in words)” value in series [6] was “insoluble in most solvents”.
For `Cc1cc(Nc2cc(N)ncn2)c(=O)n2c1C(=O)NC21CCC2(CC2)CC1` [Pattern 10], the “VT-XRPD form at 250° C.” value in [7] was “partially converted to Pattern 11”. The “XRPD after vacuum released” value in [8] is reported as “converted back to Pattern 3”. Further, the “form under ambient conditions (XRPD after ambient overnight)” value in [9] was “converted back to Pattern 3”.
With `Cc1cc(Nc2cc(N)ncn2)c(=O)n2c1C(=O)NC21CCC2(CC2)CC1` [Pattern 36-8], the solubility in series [10] (Toluene) amounted to 2300 µg/mL (≈ 6.28 mM). In series [11], the “XRPD after 7 days” value was “Patterns 3 and 11”; the “XRPD after 17 days” value is “Patterns 3 and 11”.
As for `Cc1cc(Nc2cc(N)ncn2)c(=O)n2c1C(=O)NC21CCC2(CC2)CC1` [Pattern 36-9], in series [10] (IPA/Water (95:5)), the solubility amounted to 3800 µg/mL (≈ 10.4 mM). For the same compound, in [11], the “XRPD after 7 days” value was “Patterns 3 and 11”; the “XRPD after 17 days” value is “Patterns 3 and 11”.
As for `Cc1cc(Nc2cc(N)ncn2)c(=O)n2c1C(=O)NC21CCC2(CC2)CC1` [Pattern 36-10], in [10] (THF/Water (9:1)), the solubility came to 8100 µg/mL (≈ 22.1 mM). For the same compound, in [11], the “XRPD after 7 days” value is “Patterns 3 and 11”; the “XRPD after 17 days” value is “Patterns 3 and 11”.

As a reminder, the solubility (thermodynamic) is solubility found after equilibrating the solid with the medium. A word on the solubility: it is how much of the substance goes into solution per volume.
